The assay relates to HOS cells. As to the kind of experiment: Western blot of osteopontin and BSP secreted into extracellular matrix by HOS cells on coated Ti disks. It counts as cell-based, human. On the procedure: Osteopontin and BSP were extracted from the extracellular matrix of HOS cells cultured on Ti disks or Ti disks coated with the recombinant Opn with lysis buffer (20 mM phosphate buffer, pH, 7.2, containing 150 mM NaCI, 0.1% SDS, 1 mM phenylmethylsulfonyl fluoride, 5 mM benzamidine, 0.1 mM e-amino caproic acid, 0.1 b-hydroxy mercuribenzoate, 0.1 mM pyrophosphate, 1 mM sodium fluoride, 1 mM sodium orthovanadate and 10 mM EDTA). Samples were then processed for Gel electrophoresis.
Western blot analysis: Cell layer proteins and conditioned media was electrophoresed in 10% SDS-polyacrylamide slab gels at 150 volts for 4 h. For Western blot analysis resolved proteins in gels were transferred by semi-dry blotting onto nitrocellulose membranes (Schleicher & Schuell, Keene, N H), gel transfers were carried out for 90 min. at 12 V in 0.025 M Tris-glycine buffer, pH 8.2, containing 20% methanol and 0.01% Tween 20 and 10% nonfat dry milk, then incubated with rabbit anti-mouse osteopontin (Ashkar S, et al., New York Academy of Science 760:296-298, 1995) in 20 mM Phosphate buffer, pH 7.4, containing 150 mM NaCL, 0.1% Tween 20 and 1% nonfat dry milk. […] Nonspecific interaction was assessed by the interaction of the primary and secondary antibodies with rabbit serum albumin. […]

In the case of “rhOPN: human recombinant phosphorylated form of osteopontin”, the “OPN secretion into the extracellular matrix (Western blot)” value (HOS cells on coated Ti disks vs uncoated titanium controls) is given as “increased secretion of OPN”. For the same substance, the “BSP extracellular matrix secretion (Western blot)” value (HOS cells on rhOPN coated implants, control groups did not express BSP) is on record as “less marked than the production of osteopontin”.

Source of the values: patent publication US20060105013A1, “Osteopontin-coated surfaces and methods of use” (priority 2000, published 2006).
